Assay results published in article PMC12238238, “Identification of gut bacteria reductases that biotransform steroid hormones” (Nature Communications, 2025).

Columns and labels:
[1] = biological target: T1, dw0523 (3β-HSDH/I) (Dysosmobacter welbionis, UniProt A0A4D7AXI1); test: LC-MS of products in E. coli expressing the gene; assay type: cell-based; details: whole E. coli cells, anaerobic, 1 mg/100 mL steroid, 48 h, 37 °C; product progesterone
T1 construct: gene EIO64_02590; expressed in E. coli, whole-cell biotransformation; separate (unfused) 3β-HSDH/I gene
T1 sequence (A0A4D7AXI1 1-497): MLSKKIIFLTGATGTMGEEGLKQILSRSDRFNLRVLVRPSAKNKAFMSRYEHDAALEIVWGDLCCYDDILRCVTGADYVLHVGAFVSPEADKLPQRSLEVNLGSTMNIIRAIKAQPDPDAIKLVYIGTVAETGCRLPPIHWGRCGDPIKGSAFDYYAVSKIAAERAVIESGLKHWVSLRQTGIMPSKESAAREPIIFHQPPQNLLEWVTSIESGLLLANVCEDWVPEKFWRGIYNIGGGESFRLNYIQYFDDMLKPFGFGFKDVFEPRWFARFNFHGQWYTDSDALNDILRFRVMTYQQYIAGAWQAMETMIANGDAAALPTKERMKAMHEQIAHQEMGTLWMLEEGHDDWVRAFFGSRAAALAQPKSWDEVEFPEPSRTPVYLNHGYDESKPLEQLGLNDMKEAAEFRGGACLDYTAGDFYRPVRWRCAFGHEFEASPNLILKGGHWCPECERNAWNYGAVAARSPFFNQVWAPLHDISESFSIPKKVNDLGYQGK

[2] = biological target: T2, ci2350 (Δ4-3-ketosteroid 5β-reductase); test: isothermal titration calorimetry; assay type: binding, [Clostridium] innocuum; details: 0.1 M sodium phosphate, 0.2 M NaCl, 20 mM BME, 0.5 mM CHAPS, pH 6.5, 25 °C; independent model, single site
T2 construct: recombinant in E. coli, Ni HisTrap purified (pET28a/kanamycin); mutants assayed in E. coli cells

[3] = biological target: T3, baiH ([Clostridium] scindens, UniProt P32370); test: LC-MS of products in E. coli expressing the gene; assay type: cell-based; details: whole E. coli cells, anaerobic, 1 mg/100 mL steroid, 48 h, 37 °C; product progesterone
T3 construct: expressed in E. coli, whole-cell biotransformation
T3 sequence (P32370 1-661): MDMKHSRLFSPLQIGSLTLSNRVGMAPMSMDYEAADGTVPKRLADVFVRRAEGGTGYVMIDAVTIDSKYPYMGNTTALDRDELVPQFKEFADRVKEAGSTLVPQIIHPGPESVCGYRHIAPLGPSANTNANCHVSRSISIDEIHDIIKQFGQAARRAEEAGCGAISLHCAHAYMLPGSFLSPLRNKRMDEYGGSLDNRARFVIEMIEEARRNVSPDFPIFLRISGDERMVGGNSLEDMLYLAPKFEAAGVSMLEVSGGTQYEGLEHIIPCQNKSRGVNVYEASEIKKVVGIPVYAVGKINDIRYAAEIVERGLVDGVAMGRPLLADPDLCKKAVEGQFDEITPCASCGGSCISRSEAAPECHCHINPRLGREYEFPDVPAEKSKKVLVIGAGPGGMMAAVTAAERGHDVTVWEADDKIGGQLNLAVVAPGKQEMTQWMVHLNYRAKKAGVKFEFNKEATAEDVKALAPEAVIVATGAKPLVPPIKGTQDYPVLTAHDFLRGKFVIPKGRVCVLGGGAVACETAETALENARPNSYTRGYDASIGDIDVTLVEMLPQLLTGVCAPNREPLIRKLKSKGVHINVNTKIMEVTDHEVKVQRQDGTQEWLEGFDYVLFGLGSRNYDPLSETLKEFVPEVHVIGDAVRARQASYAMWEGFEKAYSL

[4] = biological target: T4, baiCD ([Clostridium] scindens, UniProt P19410); test: LC-MS of products in E. coli expressing the gene; assay type: cell-based; details: whole E. coli cells, anaerobic, 1 mg/100 mL steroid, 48 h, 37 °C; product 5β-dihydroprogesterone
T4 construct: expressed in E. coli, whole-cell biotransformation
T4 sequence (P19410 1-639): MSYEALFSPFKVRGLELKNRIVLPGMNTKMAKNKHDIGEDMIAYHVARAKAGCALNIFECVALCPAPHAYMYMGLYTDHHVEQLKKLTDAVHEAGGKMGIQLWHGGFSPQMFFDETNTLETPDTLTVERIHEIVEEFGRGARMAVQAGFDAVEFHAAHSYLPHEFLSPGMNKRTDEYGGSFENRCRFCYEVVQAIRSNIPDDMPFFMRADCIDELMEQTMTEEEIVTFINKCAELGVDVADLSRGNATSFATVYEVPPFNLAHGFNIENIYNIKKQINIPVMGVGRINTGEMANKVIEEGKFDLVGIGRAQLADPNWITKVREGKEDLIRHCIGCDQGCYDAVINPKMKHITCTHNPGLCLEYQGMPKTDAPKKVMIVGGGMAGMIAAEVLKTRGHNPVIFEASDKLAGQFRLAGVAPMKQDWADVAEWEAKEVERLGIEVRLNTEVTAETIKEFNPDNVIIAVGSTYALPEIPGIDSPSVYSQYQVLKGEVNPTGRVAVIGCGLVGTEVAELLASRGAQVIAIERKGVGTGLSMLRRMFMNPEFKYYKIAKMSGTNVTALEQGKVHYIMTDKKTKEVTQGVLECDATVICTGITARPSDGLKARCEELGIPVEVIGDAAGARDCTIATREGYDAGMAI

SMILES | LC-MS of products in E. coli expressing the gene [1] | Kd [2] [nM] | LC-MS of products in E. coli expressing the gene [3] | LC-MS of products in E. coli expressing the gene [4]
CC(=O)[C@H]1CC[C@H]2[C@@H]3CC=C4C[C@@H](O)CC[C@]4(C)[C@H]3CC[C@]12C [pregnenolone] | with dw0523 producing only progesterone | – | – | –
C[C@]12CCC(=O)C=C1CC[C@@H]1[C@@H]2C(=O)C[C@@]2(C)[C@H]1CC[C@]2(O)C(=O)CO [cortisone] | – | 759 | – | –
CC(=O)[C@H]1CC[C@H]2[C@@H]3C=CC4=CC(=O)CC[C@]4(C)[C@H]3CC[C@]12C [6-dehydroprogesterone] | – | 594 | only partial conversion of the substrate by C. scindens baiH | –
CC(=O)[C@H]1CC[C@H]2[C@@H]3CCC4=CC(=O)CC[C@]4(C)[C@H]3CC[C@]12C [progesterone] | – | 432 | – | baiCD had limited, but detectable, reduction of progesterone
C[C@]12CCC(=O)C=C1CC[C@@H]1[C@@H]2[C@@H](O)C[C@@]2(C)[C@H]1CC[C@]2(O)C(=O)CO [hydrocortisone] | – | 668 | – | –
